Results published in the supplement of paper PMC10307832.

Legend:
Assay in all cases: relative viability (nuclei count vs DMSO), 5 days (fraction); higher = more cells survive
[1] = compound: C1=CC2=C(C=C(C(=C2N=C1)O)N=NC3=CC4=C(C=C3)C=C(C=C4)S(=O)(=O)O)S(=O)(=O)O + N=C(N)NC(=N)NCCc1ccccc1 [Phenformin] (partner 250 µM)
Method in brief: (§1)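 Dosing by pin tool came one day after lung cancer cell lines were seeded in 1536-well plates, using either one drug or a fixed anchor-drug dose plus five library-drug doses (not always all listed) in √10 steps. After 5 days, nuclei were counted on 4× images. Relative viability is treated-well nuclei count divided by vehicle-well nuclei count, and values are medians of duplicate plates.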

[2] = compound: C1=CC2=C(C=C(C(=C2N=C1)O)N=NC3=CC4=C(C=C3)C=C(C=C4)S(=O)(=O)O)S(=O)(=O)O + COc1cccc2cc(-c3nc([C@H]4CC[C@H](C(=O)O)CC4)n4ncnc(N)c34)[nH]c12 [OSI-027] (partner 0.5 µM)
Method in brief: as §1

AT-7519 + Luminespib = compound: O=C(NC1CCNCC1)c1n[nH]cc1NC(=O)c1c(Cl)cccc1Cl [AT-7519] + CCNC(=O)c1noc(-c2cc(C(C)C)c(O)cc2O)c1-c1ccc(CN2CCOCC2)cc1 [Luminespib] (partner 0.01 µM)
Method in brief: as §1

[3] = compound: C1=CC2=C(C=C(C(=C2N=C1)O)N=NC3=CC4=C(C=C3)C=C(C=C4)S(=O)(=O)O)S(=O)(=O)O + C[C@]1(O)C[C@@H](c2nc(-c3ccc4ccc(-c5ccccc5)nc4c3)c3c(N)nccn32)C1 [Linsitinib] (partner 1 µM)
Method in brief: as §1

Cell Line	relative viability ([1]; first compound 0.08 µM)	relative viability ([1]; first compound 0.253 µM)	relative viability ([1]; first compound 0.8 µM)	relative viability ([1]; first compound 2.53 µM)	relative viability ([1]; first compound 8 µM)	relative viability ([2]; first compound 0.08 µM)	relative viability ([2]; first compound 0.253 µM)	relative viability ([2]; first compound 0.8 µM)	relative viability ([2]; first compound 2.53 µM)	relative viability ([2]; first compound 8 µM)	relative viability (AT-7519 + Luminespib; first compound 0.01 µM)	relative viability (AT-7519 + Luminespib; first compound 0.03162 µM)	relative viability (AT-7519 + Luminespib; first compound 0.3162 µM)	relative viability (AT-7519 + Luminespib; first compound 1 µM)	relative viability ([3]; first compound 0.08 µM)	relative viability ([3]; first compound 0.253 µM)	relative viability ([3]; first compound 0.8 µM)	relative viability ([3]; first compound 2.53 µM)	relative viability ([3]; first compound 8 µM)
COR-L23	0.488	0.43	0.422	0.419	0.45	0.884	0.781	0.725	0.612	0.802	1	0.867	0.273	0.116	1.01	0.927	0.925	0.87	0.753
ABC-1	0.236	0.245	0.236	0.237	0.245	0.435	0.336	0.463	0.499	0.64	0.75	0.582	0.347	0.206	0.8	0.632	0.86	0.688	0.738
NCI-H522	0.658	0.64	0.71	0.603	0.612	0.683	0.623	0.565	0.724	0.592	1.01	1.07	1.31	0.959					
NCI-H838	0.497	0.558	0.557	0.483	0.551	0.373	0.464	0.354	0.409	0.392	0.239	0.292	0.276	0.13	1.17	0.996	0.979	0.975	1.02
SW 900	0.576	0.669	0.517	0.552	0.275	0.55	0.554	0.608	0.517	0.424	0.171	0.183	0.173	0.179					
A549	0.203	0.155	0.189	0.186	0.0602										0.7	0.515	0.617	0.645	0.576
A-427	0.324	0.293	0.283	0.288	0.313	0.402	0.447	0.45	0.41	0.5	1.07	0.88	1.06	0.184	1.18	1.07	1.08	1.07	1.11
NCI-H1792	0.261	0.343	0.254		0.295	0.866	0.669	0.726	0.689	0.629		0.453	0.359	0.613	0.667	0.48	0.619	0.592	0.565
LCLC-97TM1	0.403	0.491	0.434	0.45	0.384	0.535	0.432	0.496	0.474	0.515	0.976	0.692	0.788	0.285		0.194		0.196	0.18
NCI-H1703															0.865		0.821	0.371	0.959
LCLC-103H	0.33	0.356	0.298	0.358	0.369	0.475	0.485	0.444	0.463	0.517	1.06	0.953	0.955	0.867	1.2	1.04	1	1.15	1.09
PC-3 [JPC-3]	0.474	0.473	0.477	0.478	0.494	0.815	0.71	0.791	0.778	0.769	0.515	0.558	0.694	0.623	0.998	0.93	0.94	0.965	0.97
BEN	0.254	0.274	0.267	0.298	0.234	0.289	0.303	0.244	0.297	0.292	0.303	0.307	0.231	0.361	1.11	0.887	0.799	0.94	0.827
NCI-H1666	0.536	0.579	0.586	0.596	0.566	0.897	0.838	0.793	0.827	0.847	1.06	0.943	0.988	0.585	0.876	0.831	0.74	0.84	0.673
ChaGo-K-1	0.444	0.491	0.525	0.531	0.359	0.641	0.555	0.519	0.556	0.382	0.607	0.544	0.669	0.522					
Calu-6															1.08	0.976	0.911	0.926	0.969
HCC-366	0.646	0.618	0.585	0.631	0.589	0.989	0.932	0.89	0.861	0.948					0.557	0.578	0.678	0.603	0.648
NCI-H1648						0.259	0.251	0.263	0.253	0.185									
EBC-1															1.04	0.878	0.796	0.945	0.915
NCI-H1299															1.04	0.98	0.937	0.955	0.986
NCI-H2342	0.629	0.582	0.537	0.621	0.528	0.529	0.657	0.603	0.563	0.674	0.646	0.759	0.613	0.587					
IA-LM															0.822	0.68	0.472	0.755	0.568
NCI-H2170	0.46	0.404	0.417	0.424	0.391	0.958	0.676	0.666	0.756	0.689	0.398	0.636	0.807	0.599					
